According to US20240317792A1, “CYCLIC DINUCLEOTIDE METAL COMPOUND, AND PREPARATION AND APPLICATION THEREOF” (HANGZHOU XINGAO BIOTECHNOLOGY CO., LTD., priority 2022, published 2024):

How the values were obtained:
IFN-β = IFN-β content in blood induced by the compounds, over time by ELISA; format: in vivo; settings: SD mice serum, sampled 0-24 h, peak of concentration change curve
Experimental: Experimental animals: SD mice, weighing 200-220 g, were purchased from Shanghai SLAC Laboratory Animal Co. Ltd.
Main test steps: The SD mice were randomly divided into 7 groups (10 mice in each group). The 7 groups were listed as follows: blank control group (injection of normal saline); cGAMP group; [Li2(cGAMP)] group; [Mg(cGAMP)] group; [Zn(cGAMP)] group; [Mn(cGAMP)] group; and [Fe(cGAMP)] group. At fixed time points (0 h, 1 h, 2 h, 4 h, 6 h, 8 h, 10 h, 12 h, 14 h, 16 h, 20 h, and 24 h), 1 mL of blood of each of the SD mice was taken through ophthalmic vein by a capillary, placed in a 1.5 mL of centrifuge tube followed by centrifugation for 30 min. Upper serum was collected and stored at −80° C. for use. Concentrations of cGAMP and IFN-β in the serum were determined by ELISA kit. Based on IFN-β induced by activation of innate immunity paths of the cGAMP and the cyclic dinucleotide metal compounds, a content of the IFN-β in the blood was detected, and stability and activation activity of immune path of the cGAMP and the cyclic dinucleotide metal compounds were evaluated. Concentration values (including cGAMP and IFN-β) in blood samples of the SD mice in each group were detected by the ELISA kit, and the concentration values and average values at each time point were calculated. A concentration change curve over time was drawn, and a peak of the concentration change curve was obtained.

IRI mice (male SD mice) = assay: Cerebral ischemia-reperfusion injury (IRI) model, TTC dyeing; format: in vivo; settings: 2 h ischemia, 24 h reperfusion; caudal vein injection 5 mg/kg (Edaravone 6 mg/kg) after 30 min ischemia
Experimental: Experimental animals: healthy male mice, weighing 280-300 grams, purchased from Shanghai SLAC Laboratory Animal Co. Ltd, with quality certificate No. (SCXK (Shanghai) 2007-0005), and kept in clean animal houses.
Establishment of a mouse cerebral ischemia model of mice and experimental method: 280-300 grams of male […] mice were selected for experiments. The male SD mice were subjected to fasting without water deprivation for 12 h before operation followed by weighing, numbering and random grouping. The male SD mice were anesthetized by intraperitoneal injection of 10 wt. % chloral hydrate at a dosage of 0.3 mL/100 g. After the male SD mice had no pain reflexes, they were subjected to neck skin preparation followed by being fixed on a dissecting table in supine position. After neck skins were disinfected with sterilized cotton balls, about 1 cm of the neck skins were cut in mid-cervical to expose subcutaneous tissues, and subcutaneous fat and the fascia were bluntly plucked with curved tweezers to expose neck muscle groups. The common carotid arteries and their upwardly internal and external carotid branches were visualized by opening the digastric muscle. The external, internal, and common carotid arteries were carefully dissected, and a thin wire was threaded under each of the three arteries, and homemade plastic spacers were placed under the common carotid arteries. The external carotid arteries and proximal ends of the common carotid arteries were ligated. After the internal common carotid arteries were clamped by arterial clips, the common carotid arteries were stuck into with homemade curved hooks followed by picking up and leading in monofilaments. The spacers were removed, and the monofilaments were gently pushed into the internal common carotid arteries and craniums. […] At this time, blood supplies of the middle cerebral arteries from the anterior cerebral arteries were blocked. Thin wires under the internal carotid arteries were ligated to secure the monofilaments to prevent the monofilaments from retreating. Excess thin wires were cut, penicillin was applied to wounds to prevent infection. The male SD mice were sutured and placed under a warm lamp to keep warm. Timing was performed when blood flows of the middle cerebral arteries were blocked by the monofilaments. After 2 hours, the monofilaments were gently pulled out and the black marks were seen, then reperfusion can be achieved.
Triphenyl tetrazolium chloride (TTC) dyeing: After being injured by 2 h cerebral ischemia and 24 h reperfusion, the male SD mice were anesthetized with 0.3 mL/100 g dosage of 10 wt. % of chloral hydrate by intraperitoneal injection and subjected to abdominal aorta bleeding to reduce influence of blood in brains. Then whole heads of the male SD mice were removed immediately after decapitating, and washed with normal saline followed by being promptly put into a −20° C. refrigerator to freeze for 20 min. Frozen brains were collected and subjected to coronal sections, each 2 mm of thickness, by a blade. Then the coronal sections were subjected to dark dyeing in a 2 wt. % of TTC solution for 20 min and fixing in a 4 wt. % of polyformaldehyde solution for 6 h followed by photographing. Then, Photoshop software was used to define area and calculate, and a formula was represented as a percentage of cerebral ischemic area=a total area of white area/a total area of ischemic hemisphere×100%.
Drug preparation and experimental grouping: Edaravone was used as a positive control drug, and an Edaravone injection was 30 mg/20 mL. A single dosage for each of the male SD mice was 0.4 mL/100 g, that is, 6 mg/kg. The cyclic dinucleotide metal compounds prepared in Examples 1-5 were prepared into […] injection drugs with the normal saline. Each of the male SD mice was subjected to caudal vein injection with 0.4 mL/100 g dosage of drugs, that is, 5 mg/kg. The male SD mice were divided into 8 groups (10 mice in each group). […]

SMILES	Time to peak serum IFN-β concentration (IFN-β) [h]	Average value of percentage of cerebral ischemic area (IRI mice (male SD mice)) [%]
Nc1nc2c(ncn2[C@@H]2O[C@@H]3COP(=O)([O-])O[C@H]4[C@@H](O)[C@H](n5cnc6c(N)ncnc65)O[C@@H]4COP(=O)([O-])O[C@@H]2[C@@H]3O)c(=O)[nH]1.[Zn+2] [[Zn(cGAMP)], zinc cyclic dinucleotide]	6.2	23.52
Nc1nc2c(ncn2C2OC3COP(=O)([O-])OC4C(COP(=O)([O-])OC2C3O)OC(n2cnc3c(N)ncnc32)C4O)c(=O)[nH]1.[Mn+2] (stereo not drawn) [[Mn(cGAMP)], manganese cyclic dinucleotide]	6.0	25.56
Nc1nc2c(ncn2[C@@H]2O[C@@H]3COP(=O)([O-])O[C@H]4[C@@H](O)[C@H](n5cnc6c(N)ncnc65)O[C@@H]4COP(=O)([O-])O[C@@H]2[C@@H]3O)c(=O)[nH]1.[Li+].[Li+] [[Li2(cGAMP)], lithium cyclic dinucleotide]	5.6	25.25
Nc1nc2c(ncn2[C@@H]2O[C@@H]3COP(=O)(O)O[C@H]4[C@@H](O)[C@H](n5cnc6c(N)ncnc65)O[C@@H]4COP(=O)(O)O[C@@H]2[C@@H]3O)c(=O)[nH]1 [cGAMP, 2′3′-cGAMP, reference compound]	4.0	26.86
Nc1nc2c(ncn2[C@@H]2O[C@@H]3COP(=O)([O-])O[C@H]4[C@@H](O)[C@H](n5cnc6c(N)ncnc65)O[C@@H]4COP(=O)([O-])O[C@@H]2[C@@H]3O)c(=O)[nH]1.[Mg+2] [[Mg(cGAMP)], magnesium cyclic dinucleotide]	5.9	18.16
Nc1nc2c(ncn2C2OC3COP(=O)([O-])OC4C(COP(=O)([O-])OC2C3O)OC(n2cnc3c(N)ncnc32)C4O)c(=O)[nH]1.[Fe+2] (stereo not drawn) [[Fe(cGAMP)], ferrous cyclic dinucleotide]	5.6	26.78
